Experimental data from patent publication US20260144799A1, “COMPOSITION COMPRISING A FIRST RAS INHIBITOR, SECOND RAS INHIBITOR AND A SHP2 INHIBITOR FOR USE IN THE TREATMENT OF CANCER” (Revolution Medicines, Inc., priority 2022, published 2026).

Columns and labels:
[1] = system: eLL2 KRAS^WT/G12C NRAS^−/− A2 model; test: Tumor cell growth in vivo, murine syngeneic eLL2 KRAS^WT/G12C NRAS^−/− A2 model; design: species or system C57BL/6J mice; conditions: on treatment; RMC-4550 30 mg/kg po qd
Procedure: Methods: Effects of Compound A and combination therapy with Compound B and/or RMC-4550 (a SHP2 inhibitor) on tumor cell growth in vivo were evaluated in the murine syngeneic eLL2 KRAS^WT/G12C NRAS^−/− A2 model using female C57BL/6J mice (6-8 weeks old). Mice were implanted with tumor cells (3×10^6 cells/mouse) in DMEM medium without supplements subcutaneously in the upper right flank. Once tumors reached an average size of ˜130 mm^3, mice were randomized to treatment groups to start the administration of test articles or vehicle. Compound A was administered by oral gavage once daily (po qd) at 200 mg/kg, compound B was administered by oral gavage once daily (po qd) at 25 mg/kg and RMC-4550 was administered by oral gavage once daily (po qd) at 30 mg/kg. In the dual combinations the compounds were administered at the same dose as the monotherapies qd. In the triple combination Compound A was dosed at 200 mg/kg po qd, Compound B was dosed at 50 mg/kg po q2d and RMC-4550 was dosed at 20 mg/kg po qd. The administration of Compound A, Compound B and RMC-4550 was ceased after 60 days of treatment in the monotherapy and combination groups. Body weight and tumor volume (using calipers) was measured twice weekly until study endpoints.

[2] = system: eLL2 KRAS^WT/G12C NRAS^−/− A2 tumors; test: Tumor immune profile by flow cytometry in response to therapy; assay type: in vivo, murine; conditions: 4 days of treatment, tumors collected 24 hours post last dose, 3 animals/group
Procedure: Methods: The tumor immune profile of the murine syngeneic eLL2 KRAS^WT/G12C NRAS^−/− A2 tumors (3 animals/group) was evaluated in response to therapy by flow cytometry. The mono- and combination therapies were administered for 4 days at the concentrations described in FIG. 1 A-C. 24 hours post last dose the tumors were collected, tumor tissue was minced, processed with the Dri Tumor & Tissue Dissociation Reagent from BD Biosciences, and homogenized with the gentleMACS™ Dissociator. The cell suspension was incubated at 4° C. for 30 minutes with Mouse BD Fc Block (Clone 2.4G2 from BD Pharmingen), 10 minutes with Blue Dead Cell Stain Kit (from Invitrogen) and 30 min in cell staining buffer. […]

Cc1nc(N2CCC3(CC2)CO[C@@H](C)[C@H]3N)c(CO)nc1-c1cccc(Cl)c1Cl [RMC-4550]
effect on tumor growth (in words) [1]: tumor growth inhibition | Ly6C+ myeloid derived suppressor cells in tumor [2]: only a slight decrease
